Laboratory results reported in patent US5244891A, “Injectable compositions of cefepime dihydrochloride hydrate” (priority 1992, dated 1993).
“Also recorded” adds a separate entry of the source. Counter-ions that a name gives are not always drawn. Like-named read-outs stand apart in the source and are kept apart here.

Experiments:
[1] = Elevated temperature storage stability in dry form (potency loss or gain by HPLC); type: physicochemical; details: for degraded at 24 h: 1 day
Protocol: Elevated temperature stabilities were determined by storing the preparations in dry containers at temperatures and for time periods as denoted below and potency losses or gains were determined by HPLC. A % potency gain is indicated by a plus sign in front of a figure. A less than 10% potency loss over a 2 to 4 week period at 45-56 deg. C. is usually indicative of less than 10% potency loss over a 2-3 year period at room temperature.

Solubility in water = type: physicochemical; details: for solubility in water (in words): for typical injectable compositions
[2] = Formation of insoluble particles on storage; type: physicochemical; details: storage at elevated temperatures
Description: The dihydrochloride dihydrate described in Example XIII can be easily dried to give the same dihydrochloride monohydrate described in Examples XI and XII. […] Accordingly, the monohydrate carrying up to about 1% by weight of adventitious water is the preferred form (total water content ca. 2.5-4.1%).

[3] = Weight loss on drying of the hydrate; type: physicochemical; details: 57° C., 0.001 mm Hg over P2 O5, 5 days; or 45° C., 10 mm Hg, 2 days
Description: The foregoing procedures of Examples XI and XII routinely produce monohydrate having a water content in the range of 2.46% to 3.70% with an average value of 3.31%. The value calculated from the stoichiometric formula is 3.15%.

[4] = dry powder, 45 deg. C. and above, even one week; 10080 min; cited from earlier work
various organisms = details: Aburaki et al. U.S. Pat. No. 4,406,899; listed as zwitterion form; cited from earlier work
[5] = 45 Deg. C., 1 week, dry container, + = potency gain, 10080 min
[6] = 45 Deg. C., 2 weeks, dry container, + = potency gain, 20160 min
[7] = 45 Deg. C., 4 weeks, dry container, + = potency gain, 40320 min
[8] = 45 Deg. C., 6 weeks, dry container, + = potency gain, 60480 min
[9] = 56 Deg. C., 1 week, dry container, + = potency gain, 10080 min
[10] = listed as sulfuric acid addition salt, sulfate salt
[11] = 56 Deg. C., 2 weeks, dry container, + = potency gain, 20160 min
[12] = listed as di-nitric acid addition salt
[13] = dry solid, 100 Deg. C., dry container, + = potency gain, read-out: PERCENT LOSS (potency)
[14] = dry solid, 45 Deg. C., 2 weeks, dry container, + = potency gain, read-out: PERCENT LOSS (potency)

Question: Which results are given for `CO/N=C(\C(=O)NC1C(=O)N2C(C(=O)[O-])=C(C[N+]3(C)CCCC3)CSC12)c1csc(N)n1` (centres unmarked) [HCl Salt]?
Answer: PERCENT LOSS (potency) [1, 5]: 4.8%; PERCENT LOSS (potency) [1, 6]: 2.3%; PERCENT LOSS (potency) [1, 7]: 6.0%; PERCENT LOSS (potency) [1, 8]: 6.4%; PERCENT LOSS (potency) [1, 9]: 6.4%; solubility in water (Solubility in water; listed as mono-hydrochloric acid addition salt): greater than 200 mg/ml

Question: With `CO/N=C(\C(=O)NC1C(=O)N2C(C(=O)[O-])=C(C[N+]3(C)CCCC3)CSC12)c1csc(N)n1` (stereo not drawn) [dihydrate, dihydrate of 7-[α-(2-aminothiazol-4-yl)-α-(Z)-methoxyiminoacetamido]-3-[(1-methyl-1-pyrrolidinio)methyl]-3-cephem-4-carboxylate dihydrochloride] as the molecule, how does the “formation of insoluble particles” value [2] read?
Answer: formation of trace amounts of insoluble particles was observed

Question: Which results are given for `CO/N=C(\C(=O)NC1C(=O)N2C(C(=O)[O-])=C(C[N+]3(C)CCCC3)CSC12)c1csc(N)n1` (stereo not drawn) [monohydrate, crystalline dihydrochloride monohydrate of 7-[α-(2-aminothiazol-4-yl)-α-(Z)-methoxyiminoacetamido]-3-[(1-methyl-1-pyrrolidinio)methyl]-3-cephem-4-carboxylate]?
Answer: loss in weight on drying [3]: no loss in weight; storage stability at elevated temperatures (chemical and biological potency) [1]: similar; degraded at 504 h ([1]; dry solid, 56° C., 3 weeks): 0.6%; remaining at 504 h ([1]; dry solid, 56° C., 3 weeks, total water content ca. 2.5-4.1%, read-out: retention of potency): ≥ 96%

Question: For `CO/N=C(\C(=O)NC1C(=O)N2C(C(=O)[O-])=C(C[N+]3(C)CCCC3)CS[C@H]12)c1csc(N)n1` (stereo partly drawn) [H2 SO4 Salt, 7-[α-(2-aminothiazol-4-yl)-α-(Z)-methoxyiminoacetamido]-3-[(1-methyl-1-pyrrolidinio)methyl]-3-cephem-4-carboxylate sulfate salt], which “PERCENT LOSS (potency)” value ([1]; 45 Deg. C., 1 week, dry container, + = potency gain, 10080 min, sulfate salt, 10080 min) is on record?
Answer: 2.4 to +5%

Question: What about the “PERCENT LOSS (potency)” value ([1]; 45 Deg. C., 2 weeks, dry container, + = potency gain, 20160 min, sulfate salt, 20160 min) of the same molecule?
Answer: 3%

Question: And the “PERCENT LOSS (potency)” value ([1]; 45 Deg. C., 4 weeks, dry container, + = potency gain, 40320 min, sulfate salt, 40320 min)?
Answer: +5%

Question: What about the “PERCENT LOSS (potency)” value ([1]; 45 Deg. C., 6 weeks, dry container, + = potency gain, 60480 min, sulfate salt, 60480 min) of the same molecule?
Answer: 1.4%

Question: What about the “PERCENT LOSS (potency)” value ([1]; 56 Deg. C., 1 week, dry container, + = potency gain, 10080 min, sulfate salt, 10080 min) of the same molecule?
Answer: 5 to +6%

Question: And the “PERCENT LOSS (potency)” value ([1]; 56 Deg. C., 2 weeks, dry container, + = potency gain, 20160 min, sulfate salt, 20160 min)?
Answer: +3%

Question: What about the “PERCENT LOSS (potency)” value ([1]; 56 Deg. C., 4 weeks, dry container, + = potency gain, 40320 min, sulfate salt, 40320 min) of the same molecule?
Answer: 0 to +6%

Question: What about the degraded at 730 h ([1]; dry solid, 45-56 deg. C., one month) of the same molecule?
Answer: < 10%

Question: What about the “solubility compared to the zwitterion form” value (Solubility in water) of the same molecule?
Answer: limited solubility

Question: What about the “solubility in water (in words)” value (Solubility in water; [10]) of the same molecule?
Answer: reduced solubilities which are insufficient for typical injectable compositions; also recorded: not sufficiently soluble to form compositions of normal concentration for administration

Question: What about the solubility in water (Solubility in water; listed as crystalline sulfuric acid addition salt, sulfate salt) of the same molecule?
Answer: 25 mg/mL

Question: What about the solubility in water (Solubility in water; [10]) of the same molecule?
Answer: about 25 mg/ml

Question: Which “PERCENT LOSS (potency)” value [1, 5] does the source give for `CO/N=C(\C(=O)NC1C(=O)N2C(C(=O)[O-])=C(C[N+]3(C)CCCC3)CSC12)c1csc(N)n1` (centres unmarked) [(HNO3)2 Salt] here?
Answer: 8.8%

Question: What about the “PERCENT LOSS (potency)” value [1, 6] of the same molecule?
Answer: 3.4%

Question: And the “PERCENT LOSS (potency)” value [1, 7]?
Answer: 0.68%

Question: What about the “PERCENT LOSS (potency)” value [1, 8] of the same molecule?
Answer: 10.3%

Question: And the “PERCENT LOSS (potency)” value [1, 9]?
Answer: 3.7%

Question: What about the “PERCENT LOSS (potency)” value [1, 11] of the same molecule?
Answer: 2.4%

Question: And the “solubility in water (in words)” value (Solubility in water; [12])?
Answer: reduced solubilities which are insufficient for typical injectable compositions; also recorded: not sufficiently soluble to form compositions of normal concentration for administration

Question: What about the solubility in water (Solubility in water; [12]) of the same molecule?
Answer: about 60 mg/ml

Question: For `CO/N=C(\C(=O)NC1C(=O)N2C(C(=O)[O-])=C(C[N+]3(C)CCCC3)CSC12)c1csc(N)n1` (centres unmarked) [(HCl)2 Salt], which “PERCENT LOSS (potency)” value [1, 5] is on record?
Answer: 0%

Question: And the “PERCENT LOSS (potency)” value [1, 7]?
Answer: 7.4%

Question: What about the “PERCENT LOSS (potency)” value [1, 9] of the same molecule?
Answer: 0%

Question: What about the degraded at 672 h ([1]; dry solid, 56° C., 4 weeks, read-out: potency loss on storage) of the same molecule?
Answer: 7.2%

Question: And the degraded at 24 h [1, 13]?
Answer: 12.4%

Question: And the solubility in water (Solubility in water; listed as di-hydrochloric acid addition salt)?
Answer: greater than 200 mg/ml

Question: Which “Stability, % Loss” value ([1]; 1 month, 37° C., 43200 min) does the source give for `CO/N=C(\C(=O)NC1C(=O)N2C(C(=O)[O-])=C(C[N+]3(C)CCCC3)CSC12)c1csc(N)n1` (stereo not drawn) [Sesquiphosphate Salt, crystalline sesquiphosphate salt of 7-[α-(2-aminothiazol-4-yl)-α-(Z)-methoxyiminoacetamido]-3-[(1-methyl-1-pyrrolidinio)methyl]-3-cephem-4-carboxylate] here?
Answer: 2.5%

Question: What about the “Stability, % Loss” value ([1]; 1 week, 45° C., 10080 min) of the same molecule?
Answer: 0%

Question: What about the “Stability, % Loss” value ([1]; 4 weeks, 56° C., 40320 min) of the same molecule?
Answer: 0%

Question: And the “Stability, % Loss” value ([1]; 3 days, 70° C.)?
Answer: 0%

Question: What about the degraded at 168 h ([1]; dry solid, 1 week, 56° C., read-out: Stability, % Loss) of the same molecule?
Answer: 1%

Question: And the degraded at 336 h ([1]; dry solid, 2 weeks, 45° C., read-out: Stability, % Loss)?
Answer: 1.4%

Question: What about the degraded at 336 h ([1]; dry solid, 2 weeks, 56° C., read-out: Stability, % Loss) of the same molecule?
Answer: 1.4%

Question: And the degraded at 672 h ([1]; dry solid, 4 weeks, 45° C., read-out: Stability, % Loss)?
Answer: 0.7%

Question: And the degraded at 1344 h ([1]; dry solid, 8 weeks, 45° C.)?
Answer: 1.6%

Question: What about the degraded at 24 h ([1]; dry solid, 100° C., read-out: Stability, % Loss) of the same molecule?
Answer: 10.9%

Question: And the degraded at 168 h ([1]; dry solid, 7 days, 70° C., read-out: Stability, % Loss)?
Answer: 1.9%

Question: What about the solubility in water (Solubility in water; listed as sesqui-orthophosphoric acid addition salt) of the same molecule?
Answer: greater than 200 mg/ml

Question: Which results are given for `CO/N=C(\C(=O)NC1C(=O)N2C(C(=O)[O-])=C(C[N+]3(C)CCCC3)CS[C@H]12)c1csc(N)n1` (stereo partly drawn) [Zwitterion, 7-[α-(2-aminothiazol-4-yl)-α-(Z)-methoxyiminoacetamido]-3-[(1-methyl-1-pyrrolidinio)methyl]-3-cephem-4-carboxylate, reference compound]?
Answer: loss of activity on storage [4]: ≥ 30%; degraded at 168 h ([1]; dry solid, 45 Deg. C., 1 week, dry container, + = potency gain, read-out: PERCENT LOSS (potency)): 37%; degraded at 336 h [1, 14]: 51%; degraded at 672 h ([1]; dry solid, 45 Deg. C., 4 weeks, dry container, + = potency gain, read-out: PERCENT LOSS (potency)): 71%; degraded at 168 h ([1]; dry solid, 56 Deg. C., 1 week, dry container, + = potency gain, read-out: PERCENT LOSS (potency)): 57%; degraded at 24 h [1, 13]: 100%; spectrum of activity (various organisms): broader spectrum activity than ceftazidime and cefotaxime; also recorded: broad spectrum utility against various organisms

Question: What does the source list for `CO/N=C(\C(=O)NC1C(=O)N2C(C(=O)[O-])=C(C[N+]3(C)CCCC3)CSC12)c1csc(N)n1` (stereo not drawn) [(H3 PO4)2 Salt, crystalline diphosphate salt of 7-[α-(2-aminothiazol-4-yl)-α-(Z)-methoxyiminoacetamido]-3-[(1-methyl-1-pyrrolidinio)methyl]-3-cephem-4-carboxylate]?
Answer: PERCENT LOSS (potency) [1, 5]: 0%; PERCENT LOSS (potency) [1, 7]: 1.0%; PERCENT LOSS (potency) [1, 9]: 2.7%; PERCENT LOSS (potency) [1, 11]: 5.0%; degraded at 336 h [1, 14]: 3%; solubility in water (Solubility in water; listed as di-orthophosphoric acid addition salt): greater than 200 mg/ml
